Active and inactive are the calls of the source. How the calls were made is not given here.

Ubiquitin-conjugating enzyme E2 N (Homo sapiens), sequence (P61088 whole entry, looked up): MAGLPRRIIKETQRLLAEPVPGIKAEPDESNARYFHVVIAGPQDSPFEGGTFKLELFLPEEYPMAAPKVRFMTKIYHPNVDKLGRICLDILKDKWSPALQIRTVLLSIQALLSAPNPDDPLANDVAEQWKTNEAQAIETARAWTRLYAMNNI

This test concerns the target Ubiquitin-conjugating enzyme E2 N (Homo sapiens) (UniProt P61088). Kind of test: NMR detection of UBE2N ligand binding – biophysical, purified protein (AID 1552). As to conditions: NMR binding to purified UBE2N.
As a reminder, the Kd is the concentration at which binding is half-saturated. On to `COC(=O)Nc1c(C)n(C)n(-c2ccccc2)c1=O`, for which the Kd was > 4 mM (inactive).

As for `NC(N)=NOCC[C@H](N)C(=O)O`, the Kd is > 4 mM (inactive). As to `Cc1ccc(CN2C3=NC(=O)CN3c3ccccc32)cc1`, the Kd was > 4 mM (inactive). The value for `OC[C@@H]1CCCN2CCCC[C@H]12` was > 4 mM (inactive); that for `CC1=NN(c2ccc(N)cc2)C(=O)C1` was > 4 mM (inactive); that for `Cc1cc(F)c(F)c(C(=O)NC2CC2)c1Cl` was > 4 mM (inactive). The value for `O=C1NC(=S)N/C1=C\c1cccnc1` was > 4 mM (inactive).

For the molecule `CC(=O)O[C@@H]1c2c(ccc3ccc(=O)oc23)OC(C)(C)[C@@H]1OC(=O)CC(C)C`, the Kd is > 4 mM (inactive). For `Cc1nn(-c2ccccc2)nc1C(N)=O` the value was > 4 mM (inactive); for `Cc1scc(C(=O)Nc2ccon2)c1-c1ccccc1`, > 4 mM (inactive); for `COc1ccc(C(N)=O)cc1N`, > 4 mM (inactive). The value for `Cc1occc1C(=O)NC1CCN(C)CC1` was > 4 mM (inactive); that for `COc1cc2c(cc1-c1coc3c4c(c(OC)cc3c1=O)OC(C)(C)C=C4)OCO2` was > 4 mM (inactive); that for `COc1ccccc1NC(=O)c1cc[n+]([O-])cc1` was > 4 mM (inactive).

Regarding `C/C1=C/CC(C)(C)/C=C/C/C(C)=C/CC1`, the Kd was > 4 mM (inactive). For `Cc1ccccc1NC(=O)CSc1ccnc(=O)[nH]1` the value was > 4 mM (inactive).

Consider `C[C@@H]1CC[C@@]2(NC1)O[C@H]1C[C@H]3C4CC=C5C[C@@H](O)CC[C@]5(C)C4CC[C@]3(C)C1[C@@H]2C` (stereo partly drawn), for which the Kd was > 4 mM (inactive).

Consider `CCOC(=O)c1cc(C)[nH]n1`, for which the Kd is > 4 mM (inactive). The value for `CC(NC(=O)C1CCCCC1)C(=O)NC1=NCCS1` (stereo not drawn) was > 4 mM (inactive); that for `CNc1nnc(Cc2csc(N)n2)s1` was > 4 mM (inactive); that for `N#Cc1cnn(Cc2ccc(Cl)cc2)c1N` was > 4 mM (inactive).

For the molecule `CN1CCN(C(=O)Nc2cccc3ccccc23)CC1`, the Kd is > 4 mM (inactive). Take `CN(C)C(=S)Nc1ccccc1N1CCOCC1`: the Kd is > 4 mM (inactive). The value for `O=C(NC(=S)NC1CCS(=O)(=O)C1)c1ccccc1` (stereo not drawn) was > 4 mM (inactive); that for `O=C(Nc1ccccc1[N+](=O)[O-])c1ccc(=O)[nH]n1` was > 4 mM (inactive). On to `Oc1cc(O)cc(/C=C/c2ccccc2)c1`, for which the Kd is > 4 mM (inactive). For `CC(=O)c1c(O)cc(C)n(Cc2ccccc2)c1=O` the value was > 4 mM (inactive); for `Cc1ccc(C(=O)Nc2nnc(-c3ccncc3)s2)o1`, > 4 mM (inactive); for `CC(=O)Nc1nnc(-c2ccncc2)s1`, > 4 mM (inactive).

Turning to `O=C(O)c1ccc(-n2cncn2)cc1`, the Kd is > 4 mM (inactive).

For `Cc1nnsc1C(=O)N(C)c1ccccc1`, the Kd is > 4 mM (inactive).

For `COc1c2c(cc3c1OCO3)C13C=C[C@H](OC)CC1N(C2)CC3O` (stereo partly drawn), the Kd was > 4 mM (inactive).

For `COc1ccc(C(=O)NC2=NCCS2)cc1OC`, the Kd is > 4 mM (inactive).

Turning to `COc1ccc2c(c1)O[C@H]1c3ccc(OC)cc3OC[C@@H]21`, the Kd was > 4 mM (inactive). Take `CCCn1cnn2c(=O)cc(C)nc12`: the Kd was > 4 mM (inactive). For `Cc1ccc(N2C(=O)CC(Sc3ncn[nH]3)C2=O)cc1` (stereo not drawn) the value was > 4 mM (inactive); for `COC(=O)[C@@]1(C)CCC[C@]2(C)c3ccc(O)c(C(C)C)c3CCC12` (stereo partly drawn), > 4 mM (inactive). As to `O=C(O)CCCCCCCC(=O)O`, the Kd is > 4 mM (inactive). For `Cn1nc(C(C)(C)C)cc1N` the value was > 4 mM (inactive); for `Cc1cc(C(=O)O)n[nH]1`, > 4 mM (inactive). Turning to `CN(C)C(=O)Oc1cccc(-c2nnco2)c1`, the Kd was > 4 mM (inactive).

In the case of `Oc1ccc2c(c1)OCO2`, the Kd was > 4 mM (inactive).

Turning to `Cc1noc(C)c1C(=O)NC1=NCCS1`, the Kd was > 4 mM (inactive). Turning to `CCOC(=O)C1CCN(c2ccc(C#N)cc2)CC1`, the Kd was > 4 mM (inactive). The value for `O=C(Nc1nc2ccccc2s1)c1ccc(=O)[nH]n1` was > 4 mM (inactive); that for `O=C1CCC(=O)N1c1nc2ccccc2s1` was > 4 mM (inactive). The value for `O=S1(=O)CCC(NC(=S)Nc2ccccn2)C1` (stereo not drawn) was > 4 mM (inactive); that for `CNC(=O)c1cc2cccc(OC)c2oc1=O` was > 4 mM (inactive).

Turning to `COc1cccc2onc(N)c12`, the Kd is > 4 mM (inactive). The value for `CCOC(=O)c1csc(C2COc3ccccc3O2)n1` (stereo not drawn) was > 4 mM (inactive); that for `CC(=O)O[C@@H]1CC2C(C)(C)[C@H](O)C=C[C@]2(C)C2CC[C@@]3(C)[C@H](c4ccoc4)OC(=O)C4OC43[C@@]21C` (stereo partly drawn) was > 4 mM (inactive); that for `CN1CCC[C@H]1c1cccnc1` was > 4 mM (inactive). The value for `COc1cc(C(C)=O)cc(OC)c1O` was > 4 mM (inactive); that for `C=C1C2CC[C@@]3(C)[C@H](c4ccoc4)OC(=O)C[C@]13O[C@H]1CC(=O)C(C)(C)[C@H](C(OC(C)=O)C(=O)OC)[C@@]21C` (stereo partly drawn) was > 4 mM (inactive); that for `O=C(Nc1ccc2c(c1)OCO2)c1cccc(F)c1` was > 4 mM (inactive). For `OCc1ccc(-n2cccn2)cc1` the value was > 4 mM (inactive); for `COc1cc(OC)c(-c2c(OC)cc(OC)cc2OC)c(OC)c1`, > 4 mM (inactive). With `OC1CC2CCC1C2` (stereo not drawn), the Kd was > 4 mM (inactive). As to `O=C1c2cccnc2C(=O)N1Cc1ccco1`, the Kd is > 4 mM (inactive). The value for `Cc1ccc(Nc2nnns2)cc1C` was > 4 mM (inactive); that for `Nc1ncnc(NCc2cccnc2)c1[N+](=O)[O-]` was > 4 mM (inactive).

Regarding `NC(CC(=O)O)C(=O)Nc1ccc(Cl)cc1` (stereo not drawn), the Kd was > 4 mM (inactive).

Regarding `NC(=O)c1cccnc1Oc1ccccc1`, the Kd was > 4 mM (inactive).

Turning to `O=C1CN(c2ccccc2)CC(=O)N1`, the Kd is > 4 mM (inactive). Consider `O=C(CN1CCOCC1)Nc1cccc(Br)c1`, for which the Kd is > 4 mM (inactive). For `O=C(O)CSc1nnc(-c2cccs2)o1` the value was > 4 mM (inactive); for `Cc1ccc(C(=O)Nc2ccncc2)o1`, > 4 mM (inactive). On to `COc1ccc2nc(N)sc2n1`, for which the Kd is > 4 mM (inactive). For `Cc1n[nH]c(=S)n(/N=C/c2cccs2)c1=O` the value was > 4 mM (inactive); for `O=C(Cc1ccc(F)cc1)Nc1ncccn1`, > 4 mM (inactive). Consider `COC(=O)NNc1ncnc(N)c1[N+](=O)[O-]`, for which the Kd was > 4 mM (inactive). For `Cc1cc(C)n2nc(C(=O)NCc3ccco3)nc2n1` the value was > 4 mM (inactive); for `O=Cc1c(N2CCOCC2)nc2ccccn2c1=O`, > 4 mM (inactive).

Values taken from PubChem BioAssay AID1552 (Sanford-Burnham Center for Chemical Genomics, 2009).
